Source: US9845322B2 (Hoffmann-La Roche Inc., priority 2016, dated 2017)
Where two headings read alike, the source gives them in different places.

Test system: HBsAg secretion in HepG2.2.15 cells
Assay: HBsAg assay (chemiluminescence immunoassay of secreted HBsAg in culture supernatant)
Assay type: cell-based, HBV
Settings: concentration at which HBsAg secretion was reduced by 50% compared to the no drug control, read-out: IC50 (HBsAg assay)
How it was run: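 HepG2.2.15 cells (1.5×10^4/well, duplicate) treated with three-fold compound dilutions, 1% DMSO final, DMSO as no-drug control. Secreted HBsAg in supernatant quantified semi-quantitatively by chemiluminescence immunoassay; IC50 is concentration reducing HBsAg 50% versus no-drug control.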

[1] = Hepatitis B virus, HepG2.2.15, HepG2.2.15 cells

SMILES	IC50 (HepG2.2.15 cells) [nM]	IC50 [1] [nM]
COc1cc(F)nc(N2CCc3nc(-c4ncccn4)ncc3C2C)c1 (single isomer, unassigned; (+)) [Example 139, (+)-6-(6-fluoro-4-methoxy-2-pyridyl)-5-methyl-2-pyrimidin-2-yl-7,8-dihydro-5H-pyrido[4,3-d]pyrimidine]	1590	–
CC1c2cnc(-c3ccccn3)nc2CCN1c1cc(OCC2CC2)cc(F)n1 (centres unmarked) [Example 191, 6-[4-(cyclopropylmethoxy)-6-fluoro-2-pyridyl]-5-methyl-2-(2-pyridyl)-7,8-dihydro-5H-pyrido[4,3-d]pyrimidine]	–	35
CC1c2cnc(-c3ncccn3)nc2CCN1c1cc(F)c(F)c(OCCCCCCN)c1 (single isomer, unassigned; (-)) [Example 60, (−)-6-[2,3-difluoro-5-(5-methyl-2-pyrimidin-2-yl-7,8-dihydro-5H-pyrido[4,3-d]pyrimidin-6-yl)phenoxy]hexan-1-amine]	22	–
CC1c2cnc(-c3ncccn3)nc2CCN1c1cc(OCCCCCCC(=O)O)cc(F)n1 (single isomer, unassigned; (-)) [Example 155, (−)-7-[[2-fluoro-6-[5-methyl-2-pyrimidin-2-yl-7,8-dihydro-5H-pyrido[4,3-d]pyrimidin-6-yl]-4-pyridyl]oxy]heptanoic acid]	–	12
CC1c2cnc(-c3ccccn3)nc2CCN1c1cc(F)c(F)c(OCC(N)=O)c1 (centres unmarked) [Example 29, 2-[2,3-difluoro-5-[5-methyl-2-(2-pyridyl)-7,8-dihydro-5H-pyrido[4,3-d]pyrimidin-6-yl]phenoxy]acetamide]	–	50
CC1c2cnc(-c3ncccn3)nc2CCN1c1cc(N)cc(F)n1 (centres unmarked) [Example 210, 2-fluoro-6-(5-methyl-2-pyrimidin-2-yl-7,8-dihydro-5H-pyrido[4,3-d]pyrimidin-6-yl)pyridin-4-amine]	–	65
CC1c2cnc(-c3ncccn3)nc2CCN1c1cc(F)c(F)c(OCC(N)=O)c1 (centres unmarked) [Example 66, 2-[2,3-difluoro-5-(5-methyl-2-pyrimidin-2-yl-7,8-dihydro-5H-pyrido[4,3-d]pyrimidin-6-yl)phenoxy]acetamide]	168	–
COC(=O)CCCCCCCOc1cc(F)nc(N2CCc3nc(-c4ncccn4)ncc3C2C)c1 (centres unmarked) [Example 167, methyl 8-[[2-fluoro-6-(5-methyl-2-pyrimidin-2-yl-7,8-dihydro-5H-pyrido[4,3-d]pyrimidin-6-yl)-4-pyridyl]oxy]octanoate]	–	26
CC1c2cnc(-c3ccccn3)nc2CCN1c1cc(F)c(F)c(OCC(=O)N(C)C)c1 (centres unmarked) [Example 30, 2-[2,3-difluoro-5-[5-methyl-2-(2-pyridyl)-7,8-dihydro-5H-pyrido[4,3-d]pyrimidin-6-yl]phenoxy]-N,N-dimethyl-acetamide]	–	96
CC1c2cnc(-c3ncccn3)nc2CCN1c1cc(OCCCCCCC(N)=O)cc(F)n1 (single isomer, unassigned; (-)) [Example 156, (−)-7-[[2-fluoro-6-[5-methyl-2-pyrimidin-2-yl-7,8-dihydro-5H-pyrido[4,3-d]pyrimidin-6-yl]-4-pyridyl]oxy]heptanamide]	–	6
CC1c2cnc(-c3ncccn3)nc2CCN1c1cc(F)c(F)c(OCCCS(C)(=O)=O)c1 (centres unmarked) [Example 47, 6-[3,4-difluoro-5-(3-methylsulfonylpropoxy)phenyl]-5-methyl-2-pyrimidin-2-yl-7,8-dihydro-5H-pyrido[4,3-d]pyrimidine]	36	–
CC1c2cnc(-c3ncccn3)nc2CCN1c1cc(F)c(F)c(OCC(N)=O)c1 (single isomer, unassigned; (+)) [Example 67, (+)-2-[2,3-difluoro-5-[5-methyl-2-pyrimidin-2-yl-7,8-dihydro-5H-pyrido[4,3-d]pyrimidin-6-yl]phenoxy]acetamide]	32300	–
COCCCS(=O)(=O)c1cc(F)cc(N2CCc3nc(-c4ncccn4)ncc3C2C)c1 (centres unmarked) [Example 187, 6-[3-fluoro-5-(3-methoxypropylsulfonyl)phenyl]-5-methyl-2-pyrimidin-2-yl-7,8-dihydro-5H-pyrido[4,3-d]pyrimidine]	–	613
CC1c2cnc(-c3ncccn3)nc2CCN1c1cc(F)c(F)c(OCC(N)=O)c1 (single isomer, unassigned; (-)) [Example 68, (−)-2-[2,3-difluoro-5-[5-methyl-2-pyrimidin-2-yl-7,8-dihydro-5H-pyrido[4,3-d]pyrimidin-6-yl]phenoxy]acetamide]	74	–
CC(=O)N1CC(COc2cc(F)nc(N3CCc4nc(-c5ncccn5)ncc4C3C)c2)C1 (centres unmarked) [Example 160, 1-[3-[[2-fluoro-6-(5-methyl-2-pyrimidin-2-yl-7,8-dihydro-5H-pyrido[4,3-d]pyrimidin-6-yl)-4-pyridyl]oxymethyl]azetidin-1-yl]ethanone]	–	196
CC1c2cnc(-c3ccccn3)nc2CCN1c1cc(F)cc(N2CCNC(=O)C2)n1 (centres unmarked) [Example 223, 4-[4-fluoro-6-[5-methyl-2-(2-pyridyl)-7,8-dihydro-5H-pyrido[4,3-d]pyrimidin-6-yl]-2-pyridyl]piperazin-2-one]	–	15

SMILES	IC50 (HepG2.2.15 cells) [nM]	IC50 [1] [nM]
CC1c2cnc(-c3ncccn3)nc2CCN1c1cc(O)c(F)c(F)c1 (centres unmarked) [Example 44, 2,3-difluoro-5-(5-methyl-2-pyrimidin-2-yl-7,8-dihydro-5H-pyrido[4,3-d]pyrimidin-6-yl)phenol]	494	–
CC1c2cnc(-c3ccccn3)nc2CCN1c1cc(OCC2CCOCC2)cc(F)n1 (centres unmarked) [Example 190, 6-[6-fluoro-4-(tetrahydropyran-4-ylmethoxy)-2-pyridyl]-5-methyl-2-(2-pyridyl)-7,8-dihydro-5H-pyrido[4,3-d]pyrimidine]	–	24
CC1c2cnc(-c3ccccn3)nc2CCN1c1cc(OCC(F)F)cc(F)n1 (centres unmarked) [Example 192, 6-[4-(2,2-difluoroethoxy)-6-fluoro-2-pyridyl]-5-methyl-2-(2-pyridyl)-7,8-dihydro-5H-pyrido[4,3-d]pyrimidine]	–	30
CCCC1c2cnc(-c3ccccn3)nc2CCN1c1cc(F)c(F)c(OC)c1 (centres unmarked) [Example 12, 6-(3,4-difluoro-5-methoxy-phenyl)-5-propyl-2-(2-pyridyl)-7,8-dihydro-5H-pyrido[4,3-d]pyrimidine]	7490	–
CC1c2cnc(-c3ncccn3)nc2CCN1c1cc(F)cc(N(C)C)n1 (single isomer, unassigned; (+)) [Example 204, (+)-4-fluoro-N,N-dimethyl-6-[5-methyl-2-pyrimidin-2-yl-7,8-dihydro-5H-pyrido[4,3-d]pyrimidin-6-yl]pyridin-2-amine]	113	–
CC1c2cnc(-c3ncccn3)nc2CCN1c1cc(OCC2CS(=O)(=O)C2)cc(F)n1 (centres unmarked) [Example 195, 3-[[2-fluoro-6-(5-methyl-2-pyrimidin-2-yl-7,8-dihydro-5H-pyrido[4,3-d]pyrimidin-6-yl)-4-pyridyl]oxymethyl]thietane 1,1-dioxide]	–	55
CC1c2cnc(-c3ccccn3)nc2CCN1c1ccc([N+](=O)[O-])cc1 (centres unmarked) [Example 1, 5-methyl-6-(4-nitrophenyl)-2-(2-pyridyl)-7,8-dihydro-5H-pyrido[4,3-d]pyrimidine]	186	–
CC1c2cnc(-c3ncccn3)nc2CCN1c1cc(F)cc(N2CCNCC2)n1 (centres unmarked) [Example 209, 6-(4-fluoro-6-piperazin-1-yl-2-pyridyl)-5-methyl-2-pyrimidin-2-yl-7,8-dihydro-5H-pyrido[4,3-d]pyrimidine]	–	649
CC1c2cnc(-c3ncccn3)nc2CCN1c1cc(F)c(F)c(OC(F)F)c1 (centres unmarked) [Example 71, 6-[3-(difluoromethoxy)-4,5-difluoro-phenyl]-5-methyl-2-pyrimidin-2-yl-7,8-dihydro-5H-pyrido[4,3-d]pyrimidine]	–	68
CC1c2cnc(-c3ncccn3)nc2CCN1c1cc(F)c(F)c(OCCCCCNC(=O)OC(C)(C)C)c1 (centres unmarked) [Example 56, tert-butyl N-[5-[2,3-difluoro-5-(5-methyl-2-pyrimidin-2-yl-7,8-dihydro-5H-pyrido[4,3-d]pyrimidin-6-yl)phenoxy]pentyl]carbamate]	–	55
CC1c2cnc(-c3ccccn3)nc2CCN1c1ccc([N+](=O)[O-])cc1 (single isomer, unassigned; (-)) [Example 3, (−)-5-methyl-6-(4-nitrophenyl)-2-(2-pyridyl)-7,8-dihydro-5H-pyrido[4,3-d]pyrimidine]	115	–
CC1c2cnc(-c3ncccn3)nc2CCN1c1cc(F)cc(OCC(F)F)n1 (centres unmarked) [Example 148, 6-[6-(2,2-difluoroethoxy)-4-fluoro-2-pyridyl]-5-methyl-2-pyrimidin-2-yl-7,8-dihydro-5H-pyrido[4,3-d]pyrimidine]	–	17
CC1c2cnc(-c3ncccn3)nc2CCN1c1cc(F)c(F)c(OCCCCCCN)c1 (single isomer, unassigned; (+)) [Example 61, (+)-6-[2,3-difluoro-5-[5-methyl-2-pyrimidin-2-yl-7,8-dihydro-5H-pyrido[4,3-d]pyrimidin-6-yl]phenoxy]hexan-1-amine]	3320	–
COc1c(Cl)c(F)cc(N2CCc3nc(-c4ncccn4)ncc3C2C)c1Cl (single isomer, unassigned; (+)) [Example 124, (+)-6-(2,4-dichloro-5-fluoro-3-methoxy-phenyl)-5-methyl-2-pyrimidin-2-yl-7,8-dihydro-5H-pyrido[4,3-d]pyrimidine]	–	1250
CCOC(=O)CC1c2cnc(-c3ccccn3)nc2CCN1c1cc(F)c(F)c(OC)c1 (centres unmarked) [Example 36, ethyl 2-[6-(3,4-difluoro-5-methoxy-phenyl)-2-(2-pyridyl)-7,8-dihydro-5H-pyrido[4,3-d]pyrimidin-5-yl]acetate]	–	39800
COc1cc(N2CCc3nc(-c4ccccn4)ncc3C2CCO)cc(F)c1F (centres unmarked) [Example 38, 2-[6-(3,4-difluoro-5-methoxy-phenyl)-2-(2-pyridyl)-7,8-dihydro-5H-pyrido[4,3-d]pyrimidin-5-yl]ethanol]	–	3360
